From patent US20250197408A1, “CRYSTALLINE FORMS AND SALTS OF A PI3K INHIBITOR AND METHODS OF MAKING AND METHODS OF USE THEREOF” (Totus Medicines Inc., priority 2022, published 2025)

Experiments:
NCI-H358 (Lung) = assay: Cell proliferation assay (CellTiter-Glo, 3 days treatment), NCI-H358; type: cell-based
Text: (§1) The cell lines tested included as follows: UM-UC-3 (bladder), KYSE-410 (HN/Esophagus), SW1463 (rectum), Calu-1 (Lung), NCI-H358 (Lung), SW837 (Rectum), SW756 (Cervix), NCI-H2122 (Lung), NCI-H1373 (Lung), NCI-H1792 (Lung), NCI-H23 (Lung), MIA PaCa-2 (Pancreas), and HC44.
(§2) Cells were recovered and maintained in appropriate culture media. The cells were harvested respectively during the logarithmic growth period. The cells were then resuspended and counted using a Vi cell counter (The cell viability be measured by trypan blue exclusion assay.). The cells were then diluted and 90 μL cell suspensions were used in 96-well plates according to plate map with final cell density. Two duplicate plates were set up. One is for day 0 reading (TO) and the other was cultured in incubator for reading at the end point. The incubated plates were incubated overnight in humidified incubator at 37° C. with 5% CO2.
At day 0, 10 μL culture medium to each well for TO reading. Then, 50 μl CellTiter-Glo® Reagent was added to each well. The contents were then mixed for 2 minutes on an orbital shaker to facilitate cell lysis. The plates were then allowed to incubate at room temperature for 10 minutes to stabilize luminescent signal. Luminescence was then recorded using an EnVision Multi Label Reader. The test compound Compound I, and a control cisplatin, where then diluted at various concentrations from a 10 mM stock solution. Compound I was diluted and 10 μL of each 10× compound I from working solutions for a concentration ranging from 10 μM to about 0.005 μM. Cisplatin was diluted to about […] to about 150 nM. The screening plates were then placed back into the incubator for the appropriate treatment time (3 days).
For the endpoint CTG reading, 50 μL of CellTiter-Glo® Reagent were added to each well. The contents were then mixed for 2 minutes on an orbital shaker to facilitate cell lysis. […] Luminescence was then recorded using an EnVision Multi Label Reader. IC50's were determined for each cell line.

NCI-H2122 (Lung) = assay: Cell proliferation assay (CellTiter-Glo, 3 days treatment), NCI-H2122; type: cell-based; settings: Homo sapiens, 72 h, read-out: Absolute IC50
Text: as §1, §2
(§3) At day 0, 10 μL culture medium to each well for TO reading. 10 μL of culture medium was added to each well for TO reading. Then, 50 μl CellTiter-Glo® Reagent was added to each well. […] Luminescence was then recorded using an EnVision Multi Label Reader. […]
(§4) For the endpoint CTG reading, 50 μL of CellTiter-Glo® Reagent were added to each well. […] Luminescence was then recorded using an EnVision Multi Label Reader. IC50's were determined for each cell line.

UM-UC-3 (bladder) = assay: Cell proliferation assay (CellTiter-Glo, 3 days treatment), UM-UC-3; type: cell-based; settings: Homo sapiens, UMUC3, 72 h, read-out: Absolute IC50
Text: as §1, §2, §3, §4

PI3K = biological target: T1, PI3K (Homo sapiens, UniProt P42336); assay: NanoBRET screening in transfected HEK293 cells (binding assay, with washout); settings: compound incubated overnight then washed
T1 construct: expressed in transfected cells; host or cells: HEK293 (Gibco 293-H, #11631017), transient transfection with FuGENE HD
T1 sequence (P42336 whole entry): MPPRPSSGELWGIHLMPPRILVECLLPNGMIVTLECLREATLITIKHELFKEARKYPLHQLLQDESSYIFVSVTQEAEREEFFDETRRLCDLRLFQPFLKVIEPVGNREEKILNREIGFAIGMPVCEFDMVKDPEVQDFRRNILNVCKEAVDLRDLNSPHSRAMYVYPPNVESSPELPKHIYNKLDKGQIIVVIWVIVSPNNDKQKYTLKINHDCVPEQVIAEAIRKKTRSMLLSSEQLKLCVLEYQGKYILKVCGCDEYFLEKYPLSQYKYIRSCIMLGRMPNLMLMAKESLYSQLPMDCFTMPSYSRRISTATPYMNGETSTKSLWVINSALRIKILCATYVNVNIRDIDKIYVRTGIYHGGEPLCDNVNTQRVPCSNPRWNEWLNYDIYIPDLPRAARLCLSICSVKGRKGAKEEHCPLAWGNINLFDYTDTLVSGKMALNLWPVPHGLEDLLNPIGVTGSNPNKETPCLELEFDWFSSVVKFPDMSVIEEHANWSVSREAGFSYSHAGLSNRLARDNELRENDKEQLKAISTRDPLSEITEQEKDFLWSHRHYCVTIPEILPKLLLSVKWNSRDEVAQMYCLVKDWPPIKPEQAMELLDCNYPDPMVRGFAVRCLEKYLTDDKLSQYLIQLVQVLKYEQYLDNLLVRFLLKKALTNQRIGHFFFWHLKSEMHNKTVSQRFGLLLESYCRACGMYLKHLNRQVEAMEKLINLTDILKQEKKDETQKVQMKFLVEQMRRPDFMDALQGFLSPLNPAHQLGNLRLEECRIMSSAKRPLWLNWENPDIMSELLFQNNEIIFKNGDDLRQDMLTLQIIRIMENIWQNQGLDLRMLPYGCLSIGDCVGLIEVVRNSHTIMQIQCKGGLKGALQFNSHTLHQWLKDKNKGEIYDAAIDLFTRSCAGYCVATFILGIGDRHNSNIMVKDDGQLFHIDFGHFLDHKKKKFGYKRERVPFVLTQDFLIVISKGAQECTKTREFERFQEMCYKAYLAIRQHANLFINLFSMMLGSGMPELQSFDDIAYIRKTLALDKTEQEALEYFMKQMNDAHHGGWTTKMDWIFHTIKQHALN
T1 sequence (P27986 whole entry partner): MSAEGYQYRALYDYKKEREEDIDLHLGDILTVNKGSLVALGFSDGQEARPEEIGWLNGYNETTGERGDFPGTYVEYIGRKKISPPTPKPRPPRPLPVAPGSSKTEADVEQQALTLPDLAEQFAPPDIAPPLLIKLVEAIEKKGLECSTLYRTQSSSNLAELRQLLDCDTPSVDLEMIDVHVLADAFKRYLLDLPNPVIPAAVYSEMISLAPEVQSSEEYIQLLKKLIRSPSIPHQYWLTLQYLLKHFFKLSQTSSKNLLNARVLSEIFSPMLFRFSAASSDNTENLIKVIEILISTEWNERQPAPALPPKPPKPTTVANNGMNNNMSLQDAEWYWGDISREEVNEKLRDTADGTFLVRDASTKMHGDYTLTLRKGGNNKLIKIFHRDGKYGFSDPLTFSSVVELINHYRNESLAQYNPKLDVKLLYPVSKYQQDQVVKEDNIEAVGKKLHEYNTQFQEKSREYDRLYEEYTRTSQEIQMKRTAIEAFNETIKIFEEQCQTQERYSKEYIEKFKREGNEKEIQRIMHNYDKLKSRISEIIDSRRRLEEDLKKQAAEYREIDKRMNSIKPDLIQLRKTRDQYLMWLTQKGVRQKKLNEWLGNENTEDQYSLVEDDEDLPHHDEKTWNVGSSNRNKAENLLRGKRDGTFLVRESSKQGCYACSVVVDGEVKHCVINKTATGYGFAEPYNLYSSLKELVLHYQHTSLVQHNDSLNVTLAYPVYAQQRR
Experimental: Human embryonic kidney 293-H (HEK 293, Gibco 293-H, #11631017) cell lines were maintained in Dulbecco's Modified Eagle Medium, high glucose, pyruvate (DMEM, Gibco, #11995065) supplemented with 10% fetal bovine serum (FBS, Gibco, #10082147) and 1× penicillin-streptomycin (100× solution, Gibco, #15140148) at 37° C. and 5% CO2 in a water-saturated incubator. Cell were trypsinized using 0.05% or 0.25% Trypsin-EDTA solution (Trypsin-EDTA, phenol red, Gibco, #25200056 (0.25%) or #25300054). Opti-MEM media supplemented with 10% fetal bovine serum (Opti-MEM I reduced serum media, no phenol red, Gibco, #11058021) was used for culturing cells overnight for NanoBRET readout experiments.
HEK293 cells were cultivated appropriately prior to assay. The medium from cell flask was removed via aspiration, washed 1× with PBS followed by aspiration, trypsinized, and cells were allowed to dissociate from the flask. Trypsin was neutralized using growth medium and cells were pelleted via centrifugation at 200×g for 5 minutes. The medium was aspirated and the cells were resuspended into a single cell suspension using Opti-MEM I supplemented with 10% FBS. The cell density was adjusted to 2×10^5/mL in Opti-MEM I supplemented with 10% FBS in a sterile, conical tube. […]
A 10 μg/mL solution of DNA was prepared in Opti-MEM without serum. […] The plate on plate reader is read every hour for the next 6 hours.

SW1463 (rectum) = assay: Cell proliferation assay (CellTiter-Glo, 3 days treatment), SW1463; type: cell-based; settings: Homo sapiens, 72 h, read-out: Absolute IC50
Text: as §1, §2, §3, §4

Calu-1 (Lung) = assay: Cell proliferation assay (CellTiter-Glo, 3 days treatment), Calu-1; type: cell-based; settings: Homo sapiens, 72 h, read-out: Absolute IC50
Text: as §1, §2, §3, §4

KYSE-410 (HN/Esophagus) = assay: Cell proliferation assay (CellTiter-Glo, 3 days treatment), KYSE-410; type: cell-based; settings: Homo sapiens, 72 h, read-out: Absolute IC50
Text: as §1, §2, §3, §4

HC44 = assay: Cell proliferation assay (CellTiter-Glo, 3 days treatment), HC44; type: cell-based; settings: Homo sapiens, 72 h, HCC44 (Lung), read-out: Absolute IC50
Text: as §1, §2, §3, §4

SW837 (Rectum) = assay: Cell proliferation assay (CellTiter-Glo, 3 days treatment), SW837; type: cell-based; settings: Homo sapiens, 72 h, read-out: Absolute IC50
Text: as §1, §2, §3, §4

MIA PaCa-2 (Pancreas) = assay: Cell proliferation assay (CellTiter-Glo, 3 days treatment), MIA PaCa-2; type: cell-based; settings: Homo sapiens, 72 h, read-out: Absolute IC50
Text: as §1, §2, §3, §4

NCI-H23 (Lung) = assay: Cell proliferation assay (CellTiter-Glo, 3 days treatment), NCI-H23; type: cell-based; settings: Homo sapiens, 72 h, read-out: Absolute IC50
Text: as §1, §2, §3, §4

SW756 (Cervix) = assay: Cell proliferation assay (CellTiter-Glo, 3 days treatment), SW756; type: cell-based; settings: Homo sapiens, 72 h, read-out: Absolute IC50
Text: as §1, §2, §3, §4

NCI-H1792 (Lung) = assay: Cell proliferation assay (CellTiter-Glo, 3 days treatment), NCI-H1792; type: cell-based; settings: Homo sapiens, 72 h, read-out: Absolute IC50
Text: as §1, §2, §3, §4

NCI-H1373 (Lung) = assay: Cell proliferation assay (CellTiter-Glo, 3 days treatment), NCI-H1373; type: cell-based; settings: Homo sapiens, 72 h, read-out: Absolute IC50
Text: as §1, §2, §3, §4

With `C=CC(=O)NCC(=O)N1CCN(Cc2cc3c(N4CCOCC4)nc(-c4cnc(NC(=O)OC)cc4C(F)(F)F)nn3c2)CC1` [Compound I, methyl (5-(6-((4-(acryloylglycyl)piperazin-1-yl)methyl)-4-morpholinopyrrolo[2,1-f][1,2,4]triazin-2-yl)-4-(trifluoromethyl)pyridin-2-yl) carbamate] the IC50 (NCI-H358 (Lung); Homo sapiens, 72 h, NCI-H358 (Lung), 3 days treatment, read-out: Absolute IC50) was 1.69 µM, the “inhibitory effect on cell proliferation” value (NCI-H358 (Lung); NCI-H358, 3 days treatment, CellTiter-Glo) was “substantial inhibitory effect” and the IC50 (NCI-H2122 (Lung)) was 3.77 µM. For the same compound, the IC50 (UM-UC-3 (bladder)) was over 10 µM, the “inhibition of the PI3K target” value (PI3K) was “greater than 80%” and the IC50 (SW1463 (rectum)) was 3.86 µM. The IC50 (Calu-1 (Lung)) was over 10 µM, the IC50 (KYSE-410 (HN/Esophagus)) was 2.02 µM and the IC50 (HC44) was 7.92 µM. For the same compound, the IC50 (SW837 (Rectum)) was over 10 µM, the IC50 (MIA PaCa-2 (Pancreas)) was over 10 µM and the IC50 (NCI-H23 (Lung)) was over 10 µM. The IC50 (SW756 (Cervix)) was 7.29 µM, the IC50 (NCI-H1792 (Lung)) was over 10 µM and the IC50 (NCI-H1373 (Lung)) was over 10 µM.
